{
  "source": "patent US12427209B2",
  "about": "“Dual mode 18F-labelled theranostic compounds and uses thereof” (Provincial Health Services Authority, priority 2018, dated 2025)",
  "key": {"[1]": {"conditions": "highly dilute conditions (~5 mM), pH 7.5, in vitro (ref. 19); cited from earlier work"}, "[2]": {"biological_target": "T1, VLA-4 expressing B16-F10 cells (Mus musculus, UniProt P09055+Q00651)", "T1 construct": "endogenous in cells; host or cells: B16-F10 murine melanoma cells", "T1 sequence (Q00651 41-1039)": "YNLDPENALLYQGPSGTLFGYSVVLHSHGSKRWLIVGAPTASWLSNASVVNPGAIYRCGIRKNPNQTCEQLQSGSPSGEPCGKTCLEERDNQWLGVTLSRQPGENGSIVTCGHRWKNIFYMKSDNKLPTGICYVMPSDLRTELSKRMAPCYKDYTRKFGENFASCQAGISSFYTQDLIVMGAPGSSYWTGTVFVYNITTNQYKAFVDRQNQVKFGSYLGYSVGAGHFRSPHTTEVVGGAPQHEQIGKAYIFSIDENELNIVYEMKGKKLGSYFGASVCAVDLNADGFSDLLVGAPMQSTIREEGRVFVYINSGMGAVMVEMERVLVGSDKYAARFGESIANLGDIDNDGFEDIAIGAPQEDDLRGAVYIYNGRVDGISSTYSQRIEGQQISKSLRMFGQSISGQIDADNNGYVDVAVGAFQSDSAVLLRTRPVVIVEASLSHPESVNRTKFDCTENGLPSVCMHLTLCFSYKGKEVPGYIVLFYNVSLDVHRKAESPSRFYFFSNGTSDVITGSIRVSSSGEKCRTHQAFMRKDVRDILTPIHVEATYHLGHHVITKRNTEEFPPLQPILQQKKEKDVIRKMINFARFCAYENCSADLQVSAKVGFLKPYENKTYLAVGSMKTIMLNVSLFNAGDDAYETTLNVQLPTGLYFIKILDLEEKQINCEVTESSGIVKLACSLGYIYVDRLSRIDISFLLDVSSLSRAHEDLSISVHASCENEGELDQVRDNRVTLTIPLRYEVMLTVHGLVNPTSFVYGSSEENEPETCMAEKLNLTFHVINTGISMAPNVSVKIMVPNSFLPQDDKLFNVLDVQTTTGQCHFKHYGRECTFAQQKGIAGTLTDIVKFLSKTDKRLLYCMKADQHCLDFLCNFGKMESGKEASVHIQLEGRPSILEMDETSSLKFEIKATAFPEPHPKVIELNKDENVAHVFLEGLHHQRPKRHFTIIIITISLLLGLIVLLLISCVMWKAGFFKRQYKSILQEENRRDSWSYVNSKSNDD", "T1 sequence (P09055 21-798)": "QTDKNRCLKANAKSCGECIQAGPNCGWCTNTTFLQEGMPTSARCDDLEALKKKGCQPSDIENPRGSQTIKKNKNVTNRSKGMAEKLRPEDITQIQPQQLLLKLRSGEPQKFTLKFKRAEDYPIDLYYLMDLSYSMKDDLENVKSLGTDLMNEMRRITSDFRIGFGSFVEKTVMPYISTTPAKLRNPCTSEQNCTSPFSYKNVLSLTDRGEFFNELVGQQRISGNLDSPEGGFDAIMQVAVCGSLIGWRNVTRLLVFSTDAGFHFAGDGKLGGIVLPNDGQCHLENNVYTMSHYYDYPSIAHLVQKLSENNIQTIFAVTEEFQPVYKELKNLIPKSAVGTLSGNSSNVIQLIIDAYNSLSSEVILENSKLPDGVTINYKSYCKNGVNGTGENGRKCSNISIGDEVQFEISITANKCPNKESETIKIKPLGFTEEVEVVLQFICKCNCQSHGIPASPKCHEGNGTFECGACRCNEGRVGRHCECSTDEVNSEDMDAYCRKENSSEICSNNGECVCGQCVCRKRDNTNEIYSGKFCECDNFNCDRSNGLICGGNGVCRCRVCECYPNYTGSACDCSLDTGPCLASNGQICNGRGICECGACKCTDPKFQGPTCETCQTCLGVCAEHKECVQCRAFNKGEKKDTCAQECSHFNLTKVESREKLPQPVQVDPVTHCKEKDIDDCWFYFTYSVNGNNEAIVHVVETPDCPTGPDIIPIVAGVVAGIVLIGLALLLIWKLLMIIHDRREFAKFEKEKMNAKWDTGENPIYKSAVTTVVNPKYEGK", "experiment": "In vitro saturation binding assay on B16-F10 cells", "description": "Saturation binding assay. In vitro binding saturation assays were performed on B16-F10 cells following published procedures (n=3).(28) Cells were grown to near-confluence on 24 well poly-D-lysine plates. Growth media was removed, and reaction media (RPMI, 1% BSA, 100 U/mL penicillin/streptomycin) was added and allowed to incubate for at least 1 h at 37° C. Increasing concentrations (5 pM to 20 nM) of [^18F]6 were added to the cells and incubated for 1 h at 25° C. with mild agitation. Non-specific binding was determined by repeating the described incubations with [^18F]6 while simultaneously adding 1 (10 μM). After incubation, cells were washed twice with ice-cold PBS, harvested following incubation with trypsin, and measured for radioactivity using a WIZARD 2480 gamma counter (PerkinElmer). Values from the non-specific binding assays were subtracted from the respective values of the specific binding assays. Dissociation constants (Kd'S) were determined using GraphPad PRISM 7 with a one-site specific binding model."}, "[3]": {"tested_on": "mice bearing PSMA-expressing LNCaP prostate cancer xenografts", "parameters": "species or system mice (NODSCID 1L2RγKO male)", "conditions": "mouse, in vivo", "description": "Imaging and biodistribution experiments were performed using NODSCID 1L2RγKO male mice. The mice were maintained and the experiments were conducted in according to the guidelines established by Canadian Council on Animal Care and approved by Animal Ethics Committee of the University of British Columbia. Mice were anesthetized by inhalation with 2% isoflurane in oxygen, and implanted subcutaneously with 1×10^7 LNCaP cells behind left shoulder. Mice were imaged or used in biodistribution studies when the tumor grew up to reach 5-8 mm in diameter during 5-6 weeks. For biodistribution studies, the mice were injected with the radiotracer as described above. For blocking, the mice were co-injected with non-radioactive DCFPyL (0.5 mg). After 1 hour, the mice were anesthetized with 2% isoflurane inhalation, and euthanized by CO2 inhalation. Blood was withdrawn immediately from the heart, and the organs/tissues of interest were collected. The collected organs/tissues were weighed and counted using an automatic gamma counter. The uptake in each organ/tissue was normalized to the injected dose using a standard curve, and expressed as % ID/g."}, "[4]": {"tested_on": "B16-F10 tumor-bearing mice", "type": "in vivo, mice (male C57BL/6J)", "parameters": "Reduction of accumulation in the spleen by co-injection of 1 / Reduction of accumulation in the intestines by co-injection of 1 / Reduction of accumulation in the lungs by co-injection of 1 / Reduction of accumulation in bone & marrow by co-injection of 1 / Reduction of accumulation in the tumor by co-injection of 1: concentration or dose not given beside the values", "description": "All animal experiments were conducted according to the guidelines established by Canadian Council on Animal Care and approved by Animal Ethics Committee of the University of British Columbia. Mice were housed under pathogen-free conditions and kept on twelve-hour light and dark cycles in the Animal Resource Centre of BC Cancer Research Centre, Vancouver, Canada. PET imaging and biodistribution studies were performed using male C57BL/6J mice. For tumor implantation, mice were anesthetized by inhalation with 2% isoflurane in 2.0 L/min of oxygen, and 1×10^6 B16F10 cells were implanted subcutaneously on the right back at the level of the forelimbs. Mice were imaged or used in biodistribution studies once the tumor grew to reach 8-10 mm in diameter in 8-10 days. Mice for biodistribution study only were anesthetized by 2% isoflurane inhalation, and injected with 1-2 MBq of F-18 labeled […]3-DOTA. For blocking studies, 100 μg of non-radioactive […]3-DOTA was co-injected with the radioactive compound. After injection, the mice were allowed to recover and roam freely in their cages, and euthanized by CO2 inhalation 1 h later. Blood was promptly withdrawn, and the organs of interest were harvested, rinsed with 1×PBS (pH 7.4), and blotted dry. Each organ was weighed and the radioactivity of the collected tissue was measured using a WIZARD 2480 (PerkinElmer), normalized to the injected dose using a standard curve and expressed as the percentage of the injected dose per gram of tissue (% ID/g). Biodistribution of DOTA-[^18[…]]6) in B16-F10 tumor-bearing mice. Mice were anesthetized using 2% isoflurane and injected with 2-3 MBq of [^18F]6 via the tail vein. For competitive VLA-4 blocking studies, 200 μg of 1 was co-injected with 2-3 MBq of [^18F]6. At 1 h p.i., mice were euthanized by CO2 (g) inhalation, blood was collected, and the organs were excised. After rinsing and drying the samples, organs were weighed, their radioactivity was recorded using a Wallac WIZARD2 gamma counter (PerkinElmer), and values were expressed as % ID/g for each organ. Two-tailed ANOVA Sidak's multiple comparison tests (GraphPad PRISM) were used to evaluate statistical significance between the biodistribution of [^18F]6 alone compared with competitive blocking of VLA-4 by co-injections of 1."}, "[5]": {"tested_on": "B16-F10 tumor-bearing mice", "parameters": "species or system mice (male C57BL/6J)", "conditions": "mouse, in vivo", "description": "PET/CT imaging studies were carried out on a microPET/CT scanner (Inveon, Siemens). Briefly, for static PET scans, each tumor bearing mouse was injected with 4-6 MBq of F-18 labeled […]3-DOTA via the caudal lateral tail vein under isoflurane sedation. For blocking study, mice were co-injected with 100 μg of non-radioactive […]3-DOTA. After injection, the mice were allowed to recover and roam freely in their cages. After 50 min, the mice were sedated again and positioned in the scanner. A baseline CT scan was obtained for localization and attenuation correction. This was followed by a 10 min static PET scan. The mice were kept warm by a heating pad during acquisition. The mice were euthanized using CO2 inhalation after static PET imaging followed by biodistribution. The PET images were reconstructed using the ordered subset expectation maximization and maximum a posteriori algorithm (OSEM3D/MAP), using 2 OSEM3D iterations followed by 18 MAP iterations, with a requested resolution of 1.5 mm. […] For static PET scans (recorded for 10 min), mice were first injected with 4-6 MBq of ([^18F]6) via the tail vein while anesthetized with 2% isoflurane and were subjected to baseline CT scans (recorded for 10 min) prior to PET imaging. […] Dynamic PET scans involved the described anesthesia, injection of 4-6 MBq of [^18F]6, baseline CT scans, and PET scans recorded from 5 sec. to 52.5 min p.i. […]"}},
  "data": [
    {"compound": "C#CC[N+](C)(C)C[B-](F)(F)F", "note": "[compound 7, N-propargyl-N,N-dimethyl-ammoniomethyl-trifluoroborate]", "values": [
      {"measurement": "Loss of free fluoride (hydrolytic stability)", "setting": "[1]", "result": "very slow, first order rate"}
    ]},
    {"compound": "DOTA-AMBF3-PEG2-LLP2A [compound 6]", "values": [
      {"measurement": "Kd relative to Kd values of other [^18F]RBF3-PEG2-LLP2A conjugates (fold higher)", "setting": "[2]; comparison with earlier conjugates", "result": "at least 5 fold"},
      {"measurement": "Kd", "setting": "[2]; saturation binding of [^18F]6, B16-F10 cells, 1 h at 25° C., n=3", "result": "6.9 ± 0.59", "unit": "nM"}
    ]},
    {"compound": "^18F-PSMA-617-LysAMBF3-DOTA [F-18 labeled PSMA-617-Lys-AMBF3-DOTA]", "values": [
      {"measurement": "Tumor/Blood baseline", "setting": "[3]", "result": "14.19 ± 3.85"},
      {"measurement": "Tumor/Kidney baseline", "setting": "[3]", "result": "0.09 ± 0.03"},
      {"measurement": "Tumor/Muscle baseline", "setting": "[3]", "result": "41.55 ± 10.83"}
    ]},
    {"compound": "DOTA-[^18F]AMBF3-PEG2-LLP2A [[^18F]6]", "values": [
      {"measurement": "Lowering of tumor-to-blood contrast by VLA-4 blocking", "setting": "[4]; 1 h p.i., p<0.0001", "result": 85, "unit": "%"},
      {"measurement": "Lowering of tumor-to-muscle contrast by VLA-4 blocking", "setting": "[4]; 1 h p.i., p<0.0001", "result": 92, "unit": "%"},
      {"measurement": "Reduction of accumulation in bone & marrow by co-injection of 1", "setting": "[4]; 1 h p.i., p<0.0001", "result": 78, "unit": "%"},
      {"measurement": "Reduction of accumulation in the lungs by co-injection of 1", "setting": "[4]; 1 h p.i., p<0.0001", "result": 85, "unit": "%"},
      {"measurement": "Reduction of accumulation in the spleen by co-injection of 1", "setting": "[4]; 1 h p.i., p<0.0001", "result": 88, "unit": "%"},
      {"measurement": "Reduction of accumulation in the tumor by co-injection of 1", "setting": "[4]; 1 h p.i., p<0.0001", "result": 75, "unit": "%"},
      {"measurement": "Reduction of accumulation in the intestines by co-injection of 1", "setting": "[4]; 1 h p.i., p<0.05", "result": 43, "unit": "%"},
      {"measurement": "Reduction of accumulation in the intestines compared to previously investigated [^18F]RBF3-PEG2-LLP2A's", "setting": "[4]; mouse, in vivo", "result": "~10", "unit": "fold"},
      {"measurement": "Tumor-to-tissue ratio Tumor: Bone & Marrow", "setting": "[4]; mouse, in vivo", "result": "1.98 ± 0.78"},
      {"measurement": "Tumor-to-tissue ratio Tumor: Kidney", "setting": "[4]; mouse, in vivo", "result": "2.22 ± 0.60"},
      {"measurement": "Time of initial perfusion and first pass through the liver (dynamic PET)", "setting": "[5]", "result": "≤ 4", "unit": "min p.i."},
      {"measurement": "Time to uptake in the tumor (dynamic PET)", "setting": "[5]", "result": "≤ 1.9", "unit": "min p.i."}
    ]}
  ]
}
